Data published in PubChem BioAssay AID1963836 (Molecular Pharmacology Branch, DTP, NCI, 2024).

Tested on: 857933-349-R-J2-PDC complex spheroid viability
Test: Anticancer human tumor 857933-349-R-J2-PDC patient-derived colon adenocarcinoma cell line growth inhibition [POLQ]
Details: for IC50: curve of first compound; for viability, T/C: stronger effect = lower value; active = viability on the fitted dose curve at most 10% of control; inactive = the rest
Method in brief: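 Three-cell-type spheroids modelling solid tumor plus stroma served as the readout system; POL inhibitors were tested individually and in combination, concentration ranges set by clinical Cmax where known.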
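Also: spheroids exposed to compounds for seven days before readout.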

CC(=O)O[C@H]1C(=O)[C@@]2(C)[C@H]([C@H](OC(=O)c3ccccc3)[C@]3(O)C[C@H](OC(=O)[C@H](O)[C@@H](NC(=O)c4ccccc4)c4ccccc4)C(C)=C1C3(C)C)[C@]1(OC(C)=O)CO[C@@H]1C[C@@H]2O + Nc1ccc(C#CCN(C(=O)Cc2ncc(C(F)(F)F)cc2C(F)(F)F)c2ccc(F)cc2)nn1
< 9.49 nM: IC50 (second compound 0.0316 µM) | IC50 (second compound 0.1 µM)
12.8 nM: IC50 (second compound 0.316 µM)
inactive: viability, T/C (second compound 0.0316 µM, first compound 0.00949 µM) 45% | viability, T/C (second compound 0.0316 µM, first compound 0.03 µM) 20.3% | viability, T/C (second compound 0.0316 µM, first compound 0.0949 µM) 13.2% | viability, T/C (second compound 0.0316 µM, first compound 0.3 µM) 10.6% | viability, T/C (second compound 0.0316 µM, first compound 0.949 µM) 12.3% | viability, T/C (second compound 0.0316 µM, first compound 3 µM) 15.7% | viability, T/C (second compound 0.1 µM, first compound 0.00949 µM) 45.8% | viability, T/C (second compound 0.1 µM, first compound 0.03 µM) 22.9% | viability, T/C (second compound 0.1 µM, first compound 0.0949 µM) 10.2% | viability, T/C (second compound 0.1 µM, first compound 0.3 µM) 15.6% | viability, T/C (second compound 0.1 µM, first compound 0.949 µM) 11.8% | viability, T/C (second compound 0.1 µM, first compound 3 µM) 15.2% | viability, T/C (second compound 0.316 µM, first compound 0.00949 µM) 58.1% | viability, T/C (second compound 0.316 µM, first compound 0.03 µM) 27.4% | viability, T/C (second compound 0.316 µM, first compound 0.0949 µM) 12.8% | viability, T/C (second compound 0.316 µM, first compound 0.3 µM) 14.9% | viability, T/C (second compound 0.316 µM, first compound 0.949 µM) 15.1% | viability, T/C (second compound 0.316 µM, first compound 3 µM) 17.1% | viability, T/C (second compound 1 µM, first compound 0.00949 µM) 54.5% | viability, T/C (second compound 1 µM, first compound 0.03 µM) 24.8% | viability, T/C (second compound 1 µM, first compound 0.0949 µM) 14.6% | viability, T/C (second compound 1 µM, first compound 0.3 µM) 14% | viability, T/C (second compound 1 µM, first compound 0.949 µM) 17.4% | viability, T/C (second compound 1 µM, first compound 3 µM) 14.8% | viability, T/C (second compound 3.16 µM, first compound 0.00949 µM) 50.6% | viability, T/C (second compound 3.16 µM, first compound 0.03 µM) 20.1% | viability, T/C (second compound 3.16 µM, first compound 0.0949 µM) 16.1% | viability, T/C (second compound 3.16 µM, first compound 0.3 µM) 11.7% | viability, T/C (second compound 3.16 µM, first compound 0.949 µM) 17.3% | viability, T/C (second compound 3.16 µM, first compound 3 µM) 18.6% | viability, T/C (second compound 10 µM, first compound 0.00949 µM) 54.2% | viability, T/C (second compound 10 µM, first compound 0.03 µM) 26.5% | viability, T/C (second compound 10 µM, first compound 0.0949 µM) 16.8% | viability, T/C (second compound 10 µM, first compound 0.3 µM) 14.9% | viability, T/C (second compound 10 µM, first compound 0.949 µM) 14.5% | viability, T/C (second compound 10 µM, first compound 3 µM) 20.3%
9.73 nM: IC50 (second compound 3.16 µM)
11.2 nM: IC50 (second compound 1 µM)
11.3 nM: IC50 (second compound 10 µM)

COc1cc(C2c3cc4c(cc3C(OC3OC5COC(C)OC5C(O)C3O)C3COC(=O)C23)OCO4)cc(OC)c1O (centres undefined) + Nc1ccc(C#CCN(C(=O)Cc2ncc(C(F)(F)F)cc2C(F)(F)F)c2ccc(F)cc2)nn1
567 nM: IC50 (second compound 0.316 µM)
512 nM: IC50 (second compound 3.16 µM)
599 nM: IC50 (second compound 10 µM)
1290 nM: IC50 (second compound 0.0316 µM)
747 nM: IC50 (second compound 0.1 µM)
532 nM: IC50 (second compound 1 µM)
inactive: viability, T/C (second compound 0.0316 µM, first compound 0.0316 µM) 97.1% | viability, T/C (second compound 0.0316 µM, first compound 0.1 µM) 64.8% | viability, T/C (second compound 0.0316 µM, first compound 0.316 µM) 64.5% | viability, T/C (second compound 0.0316 µM, first compound 1 µM) 64% | viability, T/C (second compound 0.0316 µM, first compound 3.16 µM) 38% | viability, T/C (second compound 0.0316 µM, first compound 10 µM) 25.9% | viability, T/C (second compound 0.1 µM, first compound 0.0316 µM) 92.5% | viability, T/C (second compound 0.1 µM, first compound 0.1 µM) 72.5% | viability, T/C (second compound 0.1 µM, first compound 0.316 µM) 53.6% | viability, T/C (second compound 0.1 µM, first compound 1 µM) 52.3% | viability, T/C (second compound 0.1 µM, first compound 3.16 µM) 36.8% | viability, T/C (second compound 0.1 µM, first compound 10 µM) 22.1% | viability, T/C (second compound 0.316 µM, first compound 0.0316 µM) 94.2% | viability, T/C (second compound 0.316 µM, first compound 0.1 µM) 68.4% | viability, T/C (second compound 0.316 µM, first compound 0.316 µM) 53.5% | viability, T/C (second compound 0.316 µM, first compound 1 µM) 50.6% | viability, T/C (second compound 0.316 µM, first compound 3.16 µM) 35.9% | viability, T/C (second compound 0.316 µM, first compound 10 µM) 25.3% | viability, T/C (second compound 1 µM, first compound 0.0316 µM) 101% | viability, T/C (second compound 1 µM, first compound 0.1 µM) 68% | viability, T/C (second compound 1 µM, first compound 0.316 µM) 54.3% | viability, T/C (second compound 1 µM, first compound 1 µM) 51.9% | viability, T/C (second compound 1 µM, first compound 3.16 µM) 33.3% | viability, T/C (second compound 1 µM, first compound 10 µM) 31.5% | viability, T/C (second compound 3.16 µM, first compound 0.0316 µM) 85.3% | viability, T/C (second compound 3.16 µM, first compound 0.1 µM) 74% | viability, T/C (second compound 3.16 µM, first compound 0.316 µM) 53% | viability, T/C (second compound 3.16 µM, first compound 1 µM) 44.6% | viability, T/C (second compound 3.16 µM, first compound 3.16 µM) 31% | viability, T/C (second compound 3.16 µM, first compound 10 µM) 27.6% | viability, T/C (second compound 10 µM, first compound 0.0316 µM) 88% | viability, T/C (second compound 10 µM, first compound 0.1 µM) 71.5% | viability, T/C (second compound 10 µM, first compound 0.316 µM) 60% | viability, T/C (second compound 10 µM, first compound 1 µM) 43.1% | viability, T/C (second compound 10 µM, first compound 3.16 µM) 34.1% | viability, T/C (second compound 10 µM, first compound 10 µM) 32.2%
